# “And” between values parts separate entries of the source, which are not always exact repeats. Equal values may be shown once. ± gives the expanded uncertainty stated by the source.
# Assay: xn = mol fraction of the nth substance listed
# Settings: 101 kPa, Liquid, Vibrating tube method
structure (smiles),measurement,setting,value
CCCOCC(C)O (configuration not stated) [1-propoxy-2-propanol] + O,mass density,"288.15 K, x1 = 0.1283",966.142 ± 0.074 kg/m3
same,mass density,"288.15 K, x1 = 0.1365",964.14 ± 0.075 kg/m3
same,mass density,"288.15 K, x1 = 0.1475",961.573 ± 0.075 kg/m3
same,mass density,"288.15 K, x1 = 0.1677",957.197 ± 0.077 kg/m3
same,mass density,"288.15 K, x1 = 0.1955",951.825 ± 0.079 kg/m3
same,mass density,"288.15 K, x1 = 0.2281",946.219 ± 0.083 kg/m3
same,mass density,"288.15 K, x1 = 0.2743",939.47 ± 0.087 kg/m3
same,mass density,"288.15 K, x1 = 0.3208",933.429 ± 0.093 kg/m3
same,mass density,"288.15 K, x1 = 0.3483",930.247 ± 0.095 kg/m3
same,mass density,"288.15 K, x1 = 0.3738",927.69 ± 0.099 kg/m3
same,mass density,"288.15 K, x1 = 0.4214",922.877 ± 0.11 kg/m3
same,mass density,"288.15 K, x1 = 0.4787",918.2 ± 0.12 kg/m3
same,mass density,"288.15 K, x1 = 0.5257",914.413 ± 0.12 kg/m3
same,mass density,"288.15 K, x1 = 0.548",912.761 ± 0.13 kg/m3
same,mass density,"288.15 K, x1 = 0.5771",910.9 ± 0.13 kg/m3
same,mass density,"288.15 K, x1 = 0.5977",909.422 ± 0.14 kg/m3
same,mass density,"288.15 K, x1 = 0.6247",907.847 ± 0.14 kg/m3
same,mass density,"288.15 K, x1 = 0.6264",907.647 ± 0.14 kg/m3
same,mass density,"288.15 K, x1 = 0.6385",906.945 ± 0.14 kg/m3
same,mass density,"288.15 K, x1 = 0.672",905.017 ± 0.15 kg/m3
same,mass density,"288.15 K, x1 = 0.6758",904.871 ± 0.15 kg/m3
same,mass density,"288.15 K, x1 = 0.6793",904.571 ± 0.15 kg/m3
same,mass density,"288.15 K, x1 = 0.7192",902.407 ± 0.16 kg/m3
same,mass density,"288.15 K, x1 = 0.7272",901.907 ± 0.16 kg/m3
same,mass density,"288.15 K, x1 = 0.7448",901.061 ± 0.17 kg/m3
same,mass density,"288.15 K, x1 = 0.7589",900.364 ± 0.17 kg/m3
same,mass density,"288.15 K, x1 = 0.7682",899.934 ± 0.17 kg/m3
same,mass density,"288.15 K, x1 = 0.7858",899.08 ± 0.18 kg/m3
same,mass density,"288.15 K, x1 = 0.7981",898.495 ± 0.18 kg/m3
same,mass density,"288.15 K, x1 = 0.8224",897.287 ± 0.19 kg/m3
same,mass density,"288.15 K, x1 = 0.8398",896.637 ± 0.19 kg/m3
same,mass density,"288.15 K, x1 = 0.8588",895.641 ± 0.2 kg/m3
same,mass density,"288.15 K, x1 = 0.8792",894.921 ± 0.2 kg/m3
same,mass density,"288.15 K, x1 = 0.8796",894.851 ± 0.2 kg/m3
same,mass density,"288.15 K, x1 = 0.8993",893.936 ± 0.21 kg/m3
same,mass density,"288.15 K, x1 = 0.9197",893.212 ± 0.21 kg/m3 and 893.204 ± 0.21 kg/m3
same,mass density,"288.15 K, x1 = 0.9388",892.326 ± 0.22 kg/m3
same,mass density,"288.15 K, x1 = 0.9486",891.949 ± 0.22 kg/m3
same,mass density,"288.15 K, x1 = 0.9609",891.451 ± 0.22 kg/m3
same,mass density,"288.15 K, x1 = 0.9628",891.604 ± 0.22 kg/m3
same,mass density,"288.15 K, x1 = 0.9716",891.059 ± 0.23 kg/m3
same,mass density,"288.15 K, x1 = 0.9798",890.77 ± 0.23 kg/m3
same,mass density,"288.15 K, x1 = 0.9818",890.664 ± 0.23 kg/m3
same,mass density,"288.15 K, x1 = 0.9919",890.294 ± 0.23 kg/m3
same,mass density,"288.15 K, x1 = 1",889.963 ± 0.23 kg/m3
same,mass density,"293.15 K, x1 = 0.001639",997.77 ± 0.057 kg/m3
same,mass density,"293.15 K, x1 = 0.003265",997.378 ± 0.055 kg/m3
same,mass density,"293.15 K, x1 = 0.01049",996.156 ± 0.054 kg/m3
same,mass density,"293.15 K, x1 = 0.01741",995.295 ± 0.054 kg/m3
same,mass density,"293.15 K, x1 = 0.02413",994.434 ± 0.057 kg/m3
same,mass density,"293.15 K, x1 = 0.02492",994.315 ± 0.057 kg/m3
same,mass density,"293.15 K, x1 = 0.03341",992.599 ± 0.061 kg/m3
same,mass density,"293.15 K, x1 = 0.0411",990.295 ± 0.066 kg/m3
same,mass density,"293.15 K, x1 = 0.04904",987.469 ± 0.07 kg/m3
same,mass density,"293.15 K, x1 = 0.05896",983.811 ± 0.071 kg/m3
same,mass density,"293.15 K, x1 = 0.06919",980.171 ± 0.072 kg/m3
same,mass density,"293.15 K, x1 = 0.07722",977.347 ± 0.073 kg/m3
same,mass density,"293.15 K, x1 = 0.08896",973.523 ± 0.073 kg/m3
same,mass density,"293.15 K, x1 = 0.09833",970.577 ± 0.074 kg/m3
same,mass density,"293.15 K, x1 = 0.1083",967.62 ± 0.074 kg/m3
same,mass density,"293.15 K, x1 = 0.1182",964.864 ± 0.075 kg/m3
same,mass density,"293.15 K, x1 = 0.1249",963.131 ± 0.075 kg/m3
same,mass density,"293.15 K, x1 = 0.1283",962.218 ± 0.075 kg/m3
same,mass density,"293.15 K, x1 = 0.1365",960.182 ± 0.076 kg/m3
same,mass density,"293.15 K, x1 = 0.1475",957.6 ± 0.077 kg/m3
same,mass density,"293.15 K, x1 = 0.1677",953.147 ± 0.078 kg/m3
same,mass density,"293.15 K, x1 = 0.1955",947.746 ± 0.081 kg/m3
same,mass density,"293.15 K, x1 = 0.2281",942.051 ± 0.084 kg/m3
same,mass density,"293.15 K, x1 = 0.2743",935.34 ± 0.088 kg/m3
same,mass density,"293.15 K, x1 = 0.3208",929.158 ± 0.094 kg/m3
same,mass density,"293.15 K, x1 = 0.3483",926.15 ± 0.097 kg/m3
same,mass density,"293.15 K, x1 = 0.3738",923.45 ± 0.1 kg/m3
same,mass density,"293.15 K, x1 = 0.4214",918.572 ± 0.11 kg/m3
same,mass density,"293.15 K, x1 = 0.4787",913.81 ± 0.12 kg/m3
same,mass density,"293.15 K, x1 = 0.5257",910.011 ± 0.12 kg/m3
same,mass density,"293.15 K, x1 = 0.548",908.503 ± 0.13 kg/m3
same,mass density,"293.15 K, x1 = 0.5771",906.52 ± 0.13 kg/m3
